The nature of data set [1]: Pharmacokinetic study of TBN enteric-coated tablets (Example 25 method) and intravenous TBN in beagle dogs. The data set is classed as in vivo. Here is the method: (11) Pharmacokinetic study of TBN enteric-coated tablets prepared following the method described in Example 25
24 beagle dogs (male:female 1:1) were randomly divided into 4 groups (each group having 3 female and 3 male animals). Animals in group A were injected intravenously with a TBN (API) solution at a dosage of 6 mg·kg^−1, and animals in groups B and D were respectively given with TBN enteric-coated tablets at a dosage of 100 and 900 mg·animal^−1 by oral gavage. Blood was taken from the animals in group A before and 0.083, 0.25, 0.5, 1, 2, 4, 6, 8 and 24 h after administration; and blood was taken from the animals in group B and D before and 0.25, 0.5, 1, 2, 4, 6, 8, 12 and 24 h after administration. Animals in group C were given TBN enteric-coated tablets at a dosage of 300 mg·animal^−1 for seven consecutive days. Blood was taken from the animals in group C before and 0.25, 0.5, 1, 2, 4, 6, 8, 12 and 24 h after the first and seventh administration and before and 2 h after the second to sixth administration.
Detection and analysis by LC-MS/MS were performed and the pharmacokinetic parameters were calculated.

The nature of data set [2]: Bioavailability test: pharmacokinetic study of TBN (API) and enteric-coated tablets in beagle dogs. The data set is classed as in vivo. Particulars: 175 mg, oral gavage; for MRT last: read-out: MRT (0-t); for Vd/F: read-out: Vz/F. How it is done: (10) Bioavailability test: Pharmacokinetic study of TBN (API) and enteric-coated tablets in beagle dogs
6 beagle dogs were randomly divided into 2 groups, each group having 3 animals. Each test animal was given with TBN (API) at a dosage of 175 mg, or 1 enteric-coated tablet with a specification of 175 mg prepared following the method in Example 17 by oral gavage. The blood sample was collected at various times (0.08, 0.25, 0.5, 1, 1.5, 2, 4, 8, 12, and 24 h), and analyzed by LC-MS/MS. A drug concentration-time curve was plotted to calculate the pharmacokinetic parameters.

The mark [3] stands for this setting: both sexes, dog, blood, beagle dogs, intravenous 6 mg · kg^−1, Mean.
[4] abbreviates: beagle, dog, blood, po, Average of 3 animals.
[5] abbreviates: beagle, dog, blood, po, individual animal.
[6] abbreviates: individual animal, listed as TBN (API).

Where “and” joins values, the source holds several entries; their conditions need not be identical. Equal values may be shown once. Read-outs that look alike come from different tables or passages of the source.

Turning to `Cc1nc(C)c(/C=[N+](\[O-])C(C)(C)C)nc1C` [TBN, (cis)-2-methyl-N-[(3,5,6-trimethylpyrazin-2-yl)methylene)2-propylamine oxide], in data set [1] (setting [3]), the area under the curve AUC(0-inf) – broadly, total exposure, with the tail of the curve extrapolated – was 3560 ng·h/mL; the C0 was determined as 12100 ng/mL; the clearance was found to be 29.1 mL/min/kg; the half-life (in general, the time needed for the level to fall by half in the phase considered) is 17.5 min. In data set [1] (both sexes, dog, blood, beagle dogs, intravenous 6 mg · kg^−1, Mean, read-out: MRT0-inf), the MRT inf is 17.9 min. The Vd in data set [1] (both sexes, dog, blood, beagle dogs, intravenous 6 mg · kg^−1, Mean, read-out: VDSS) is 0.503 L/kg. Besides, in data set [1] (intravenous administration), the “difference in exposure levels (C0, AUC0-t) between male and female beagle dogs” value is given as “no significant difference”. Further, in data set [2] (setting [4]), the total exposure AUC(0-inf) is 9580 ng·h/mL, the MRT last worked out at 49.8 min and the Vd/F worked out at 1.22 L/kg. Also, the AUC(0-t) – broadly, exposure summed from dosing to a finite time, without extrapolation to infinity – in data set [2] (beagle, dog, blood, po, Average of 3 animals, read-out: AUC(0-t)) is 9580 ng·h/mL. The highest concentration (Cmax) – broadly, the peak of the concentration-time curve – in data set [2] (beagle, dog, blood, po, Average of 3 animals, read-out: Cmax) stood at 10100 ng/mL. In data set [2] (setting [5]), the MRT last worked out at 37.2 min and the Vd/F came to 1.39 L/kg. For the same molecule, the Tmax (usually the time at which the peak concentration occurs) in data set [2] (dog, blood, individual animal) is 15 min. In addition, in data set [2] (Average of 3 animals), the “CLz/F” value turned out to be 30.2 mL/min/kg and the “T½z” value stood at 31.2 min. In data set [2] (setting [6]), the “AUC (0-∞)” value is 5294.6 ng·h/mL and 6935.3 ng·h/mL and 16503.3 ng·h/mL; the “AUC(0-t)” value is 5290.7 ng·h/mL and 6935.2 ng·h/mL and 16503.2 ng·h/mL; the “CLz/F” value was 42.8 mL/min/kg and 33.7 mL/min/kg and 14 mL/min/kg; the “Cmax” value was 7280.25 ng/mL and 7291.11 ng/mL and 15646.14 ng/mL. Also, in data set [2] (setting [6]), the “MRT (0-t)” value is 53.4 min and 58.8 min; the “T½z” value is 22.8 min and 29.4 min and 42.6 min.

The record behind these values is patent US20220168299A1, “PHARMACEUTICAL COMPOSITION COMPRISING TBN, OR SALT OR HYDRATE THEREOF, AND PREPARATION METHOD THEREOF” (GUANGZHOU MAGPIE PHARMACEUTICALS CO., LTD., priority 2019, published 2022).
